Results from US8163929B2, “Dihydropyridone amides as P2X7 modulators” (Roche Palo Alto LLC, priority 2008, dated 2012).

Molecular target: T1, P2X7 (UniProt Q99572)
T1 sequence (Q99572 1-595): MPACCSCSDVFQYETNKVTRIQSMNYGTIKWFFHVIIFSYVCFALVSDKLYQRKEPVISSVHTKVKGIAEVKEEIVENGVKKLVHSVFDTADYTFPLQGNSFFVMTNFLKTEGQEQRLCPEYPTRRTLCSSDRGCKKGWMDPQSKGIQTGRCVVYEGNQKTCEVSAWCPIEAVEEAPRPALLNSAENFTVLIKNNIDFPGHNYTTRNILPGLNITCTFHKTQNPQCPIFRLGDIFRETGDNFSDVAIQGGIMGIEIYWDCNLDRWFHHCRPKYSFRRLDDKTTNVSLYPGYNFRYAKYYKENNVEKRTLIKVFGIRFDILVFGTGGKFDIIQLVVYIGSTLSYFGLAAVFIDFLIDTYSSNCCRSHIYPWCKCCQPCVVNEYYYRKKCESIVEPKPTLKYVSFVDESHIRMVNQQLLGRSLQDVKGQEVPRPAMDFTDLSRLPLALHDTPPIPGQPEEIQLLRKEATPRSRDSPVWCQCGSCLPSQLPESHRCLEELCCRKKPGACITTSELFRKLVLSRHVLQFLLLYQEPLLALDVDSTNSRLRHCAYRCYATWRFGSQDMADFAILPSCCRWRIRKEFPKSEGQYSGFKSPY
Experiment: P2X7 activity of Table 1
Format: cell-based
Settings: pIC50 values for P2X7
Protocol: Stock solutions of compounds were prepared from powders as a 10 mM DMSO stock solution. These solutions were stored at RT during the two week period of these experiments to prevent freeze-thaw of the DMSO stocks. The DMSO stocks were added to the appropriate assay buffer at a concentration of 10 μM, and then diluted serially to the final concentrations that were tested. […] The aqueous solutions of compounds as well as ATP (Sigma A7699) and BzATP (Sigma B6396) were prepared fresh for each day of experiment.
1321N1 cells stably expressing the full length human P2X7 gene (1321N1-hP2X7) and HEK293 cells stably expressing the full length rat P2X7 gene (HEK293-rP2X7) were obtained from the Roche Cell Culture Facility. 1321N1-hP2X7 cells were grown in Dulbecco's Modified Eagle's Medium (DMEM) high glucose supplemented with 10% FBS and 250 μg/mL G418. HEK293-rP2X7 cells were grown in DMEM/F-12 supplemented with 10% FBS, 1 mM CaCl2, 2 mM MgCl2, 2 mM L-Glutamine and 500 μg/ml G418. Cells were split such that they never became >70% confluent.
On the day prior to the experiment, 1321N1-hP2X7 or HEK293-rP2X7 cells were released into suspension with calcium-free PBS+Versene and washed by centrifugation with calcium-free PBS to remove the Versene. Cells were resuspended in growth medium at a density of 2.5×10^5 cells/mL and seeded into black walled, clear bottom 96 well plates (50,000 cells/well) approximately 18 hr prior to intracellular calcium flux experiments.
On the day of the experiment, plates were washed with FLIPR buffer (calcium- and magnesium-free Hank's Balanced Salt Solution (HBSS) supplemented with 10 mM Hepes, 2.5 mM probenecid and 2 mM calcium chloride) using a BIO-TEK 96 channel plate washer and incubated with […] fluo-3 dye at 37° C. for one hr. The dye was then removed by plate washing and the cells were allowed to equilibrate for 20 min at room temperature with antagonist or vehicle (FLIPR buffer). Agonist (100 μM BzATP final concentration for hP2X7; 5 μM BzATP final concentration or rP2X7) was added online with the FLIPR and fluorescence measurements made at 1 sec intervals for 60 sec followed by 3 sec intervals for a further 4 min (5 min total). A final addition of 5 μM ionomycin was made and the maximal BzATP-evoked fluorescence normalized to the maximal ionomycin-evoked fluorescence.

| Structure (SMILES) | pIC50 |
| --- | --- |
| Cc1ccc(-c2ccn(CCO)n2)cc1NC(=O)C1=CNC(=O)C[C@H]1c1cccc(Cl)c1 (stereo in doubt) [Compound 114, 4-(3-Chloro-phenyl)-6-oxo-1,4,5,6-tetrahydro-pyridine-3-carboxylic acid {5-[1-(2-hydroxy-ethyl)-1H-pyrazol-3-yl]-2-methyl-phenyl}-amide] | 7.56 |
| Cc1ccc(-n2cccc2)cc1NC(=O)C1=CNC(=O)CC1c1cccc(F)c1 (centres unmarked) [Compound 1, 4-(3-Fluoro-phenyl)-6-oxo-1,4,5,6-tetrahydro-pyridine-3-carboxylic acid (2-methyl-5-pyrrol-1-yl-phenyl)-amide] | 6.985 |
| Cc1ccc(-c2cc(C)n(CCO)n2)cc1NC(=O)C1=CNC(=O)C[C@H]1c1ccc(F)cc1 [Compound 2, (S)-4-(4-Fluoro-phenyl)-6-oxo-1,4,5,6-tetrahydro-pyridine-3-carboxylic acid {5-[1-(2-hydroxy-ethyl)-5-methyl-1H-pyrazol-3-yl]-2-methyl-phenyl}-amide] | 7.735 |
| Cc1ccc(-c2nnn(C)n2)cc1NC(=O)C1=CNC(=O)C[C@H]1c1ccc(F)cc1 [Compound 3, (S)-4-(4-Fluoro-phenyl)-6-oxo-1,4,5,6-tetrahydro-pyridine-3-carboxylic acid [2-methyl-5-(2-methyl-2H-tetrazol-5-yl)-phenyl]-amide] | 6.21 |
| Cc1ccc(-c2cc(C)n(C)n2)cc1NC(=O)C1=CNC(=O)C[C@H]1c1ccc(F)cc1 [Compound 4, (S)-4-(4-Fluoro-phenyl)-6-oxo-1,4,5,6-tetrahydro-pyridine-3-carboxylic acid [5-(1,5-dimethyl-1H-pyrazol-3-yl)-2-methyl-phenyl]-amide] | 7.715 |
| Cc1ccc(-c2cc[nH]n2)cc1NC(=O)C1=CNC(=O)C[C@H]1c1ccc(F)cc1 [Compound 5, (S)-4-(4-Fluoro-phenyl)-6-oxo-1,4,5,6-tetrahydro-pyridine-3-carboxylic acid [2-methyl-5-(1H-pyrazol-3-yl)-phenyl]-amide] | 7.745 |
| Cc1ccc(-c2ccc(C)c(NC(=O)C3=CNC(=O)C[C@H]3c3ccc(F)cc3)c2)nc1 [Compound 6, (S)-4-(4-Fluoro-phenyl)-6-oxo-1,4,5,6-tetrahydro-pyridine-3-carboxylic acid [2-methyl-5-(5-methyl-pyridin-2-yl)-phenyl]-amide] | 7.07 |
| Cc1ccc(-c2cc(C)n(CC(C)O)n2)cc1NC(=O)C1=CNC(=O)C[C@H]1c1ccc(F)cc1 (stereo partly drawn) [Compound 7, (S)-4-(4-Fluoro-phenyl)-6-oxo-1,4,5,6-tetrahydro-pyridine-3-carboxylic acid {5-[1-(2-hydroxy-propyl)-5-methyl-1H-pyrazol-3-yl]-2-methyl-phenyl}-amide] | 7.643 |
| Cc1ccc(-c2ccnn2CC(C)C)cc1NC(=O)C1=CNC(=O)C[C@H]1c1ccc(F)cc1 [Compound 8, (S)-4-(4-Fluoro-phenyl)-6-oxo-1,4,5,6-tetrahydro-pyridine-3-carboxylic acid [5-(2-isobutyl-2H-pyrazol-3-yl)-2-methyl-phenyl]-amide] | 6.367 |
| Cc1ccc(-c2nnnn2C)cc1NC(=O)C1=CNC(=O)C[C@H]1c1ccc(F)cc1 [Compound 9, (S)-4-(4-Fluoro-phenyl)-6-oxo-1,4,5,6-tetrahydro-pyridine-3-carboxylic acid [2-methyl-5-(1-methyl-1H-tetrazol-5-yl)-phenyl]-amide] | 6.1767 |
| Cc1ccc(-c2ccc(C)c(NC(=O)C3=CNC(=O)C[C@H]3c3ccc(F)cc3)c2)cn1 [Compound 10, (S)-4-(4-Fluoro-phenyl)-6-oxo-1,4,5,6-tetrahydro-pyridine-3-carboxylic acid [2-methyl-5-(6-methyl-pyridin-3-yl)-phenyl]-amide] | 6.653 |
| Cc1ccc(-n2cccn2)cc1NC(=O)C1=CNC(=O)C[C@H]1c1ccc(F)cc1 [Compound 11, (S)-4-(4-Fluoro-phenyl)-6-oxo-1,4,5,6-tetrahydro-pyridine-3-carboxylic acid (2-methyl-5-pyrazol-1-yl-phenyl)-amide] | 7.763 |
| Cc1cc(-c2ccc(C)c(NC(=O)C3=CNC(=O)C[C@H]3c3ccc(F)cc3)c2)n(CCO)n1 [Compound 12, (S)-4-(4-Fluoro-phenyl)-6-oxo-1,4,5,6-tetrahydro-pyridine-3-carboyxlic acid {5-[2-(2-hydroxy-ethyl)-5-methyl-2H-pyrazol-3-yl]-2-methyl-phenyl}-amide] | 6.913 |
| Cc1ccc(-c2ccnn2C)cc1NC(=O)C1=CNC(=O)C[C@H]1c1ccc(F)cc1 [Compound 13, (S)-4-(4-Fluoro-phenyl)-6-oxo-1,4,5,6-tetrahydro-pyridine-3-carboxylic acid [2-methyl-5-(2-methyl-2H-pyrazol-3-yl)-phenyl]-amide] | 7.033 |
| CCc1cc(-c2ccc(C)c(NC(=O)C3=CNC(=O)C[C@H]3c3ccc(F)cc3)c2)[nH]n1 [Compound 14, (S)-4-(4-Fluoro-phenyl)-6-oxo-1,4,5,6-tetrahydro-pyridine-3-carboxylic acid [5-(5-ethyl-2H-pyrazol-3-yl)-2-methyl-phenyl]-amide] | 6.913 |
| Cc1ccc(-c2[nH]nc(C)c2C)cc1NC(=O)C1=CNC(=O)C[C@H]1c1ccc(F)cc1 [Compound 15, (S)-4-(4-Fluoro-phenyl)-6-oxo-1,4,5,6-tetrahydro-pyridine-3-carboxylic acid [5-(4,5-dimethyl-2H-pyrazol-3-yl)-2-methyl-phenyl]-amide] | 7.79 |
| Cc1ccc(-n2ncc(=O)[nH]c2=O)cc1NC(=O)C1=CNC(=O)C[C@H]1c1ccc(F)cc1 [Compound 16, (S)-4-(4-Fluoro-phenyl)-6-oxo-1,4,5,6-tetrahydro-pyridine-3-carboxylic acid [5-(3,5-dioxo-4,5-dihydro-3H-[1,2,4]triazin-2-yl)-2-methyl-phenyl]-amide] | 7.23 |
| CCc1cc(-c2cccc(NC(=O)C3=CNC(=O)C[C@H]3c3ccc(F)cc3)c2)n[nH]1 [Compound 17, (S)-4-(4-Fluoro-phenyl)-6-oxo-1,4,5,6-tetrahydro-pyridine-3-carboxylic acid [3-(5-ethyl-1H-pyrazol-3-yl)-phenyl]-amide] | 6.073 |
| Cc1cc(-c2cccc(NC(=O)C3=CNC(=O)C[C@H]3c3ccc(F)cc3)c2)nn1C [Compound 18, (S)-4-(4-Fluoro-phenyl)-6-oxo-1,4,5,6-tetrahydro-pyridine-3-carboxylic acid [3-(1,5-dimethyl-1H-pyrazol-3-yl)-phenyl]-amide] | 5.72 |
| Cc1ccc(-c2cc(C)n(C[C@@H](O)CO)n2)cc1NC(=O)C1=CNC(=O)C[C@H]1c1ccc(F)cc1 [Compound 19, (S)-4-(4-Fluoro-phenyl)-6-oxo-1,4,5,6-tetrahydro-pyridine-3-carboxylic acid {5-[1-((R)-2,3-dihydroxy-propyl)-5-methyl-1H-pyrazol-3-yl]-2-methyl-phenyl}-amide] | 7.423 |
| Cc1cc(-c2cccc(NC(=O)C3=CNC(=O)C[C@H]3c3ccc(F)cc3)c2)n(C)n1 [Compound 20, (S)-4-(4-Fluoro-phenyl)-6-oxo-1,4,5,6-tetrahydro-pyridine-3-carboxylic acid [3-(2,5-dimethyl-2H-pyrazol-3-yl)-phenyl]-amide] | 5.31 |
| Cc1cc(-c2ccc(C)c(NC(=O)C3=CNC(=O)C[C@H]3c3ccc(F)cc3)c2)n(C)n1 [Compound 21, (S)-4-(4-Fluoro-phenyl)-6-oxo-1,4,5,6-tetrahydro-pyridine-3-carboxylic acid [5-(2,5-dimethyl-2H-pyrazol-3-yl)-2-methyl-phenyl]-amide] | 6.525 |
| Cc1cc(-c2ccc(C)c(NC(=O)C3=CNC(=O)C[C@H]3c3cccc(F)c3)c2)n[nH]1 [Compound 22, (S)-4-(3-Fluoro-phenyl)-6-oxo-1,4,5,6-tetrahydro-pyridine-3-carboxylic acid [2-methyl-5-(5-methyl-1H-pyrazol-3-yl)-phenyl]-amide] | 7.75 |
